# In publication PMC11510156, “Rutin and Physalis peruviana Extract: Population Pharmacokinetics in New Zealand Rabbits” (Pharmaceutics, 2024):
# Tests used:
# [1] = parameters: method as in PMID 33921404; details: rutin; popPK, Wistar rats; cited from earlier work
# [2] = Simple allometry prediction of human V and Cl of rutin; parameters: species or system humans
# Excerpt: Individual pharmacokinetics parameters estimated by PopPK analysis in this study, along with those from a previous study conducted by the group in Wistar rats, were used to extrapolate V and Cl to humans using the simple allometry Equation (6):(6) Y=a×W^b, where Y is the PK parameter in humans, W is the human weight, typically set at 70 kg, and a and b are the coefficient and the exponent of scaling, respectively. These last two values are obtained from the relationship between the PK parameter and body weight across different species. Theoretically, b is fixed to 0.75 for Cl and 1.0 for Vd, although it can vary depending on the drug and population under study.
# [3] = Noncompartmental PK of rutin after intravenous administration of pure rutin or P. peruviana extract; format: in vivo, New Zealand White rabbits
# Method: (§1) Twenty male New Zealand White rabbits were obtained from Sentagro E.A.T (Cachipay, Cundinamarca, Colombia), who certificated their origin and traceability. The animals were between 9 and 10 weeks old, weighing between 1.8 and 2.2 kg. They were allowed to acclimate for at least 5 days under constant temperature conditions (22 ± 1 °C), with light/dark cycles of 12 h, at the animal facility of the Department of Pharmacy of the Universidad Nacional de Colombia (UNAL), where the experiments were conducted. They were provided with water and food ad libitum until 12 h prior to the experiment, when they were fasted. The study protocol was approved by the ethics committee of the science faculty of the UNAL (Act 06, 2015, project 40831, 22 June 2015).
# (§2) Rabbits were divided into four groups to receive either pure rutin or P. peruviana extract intravenously (i.v.) or orally (p.o.). The dose of rutin i.v. was set at 0.37 mg/kg, based on the highest quantity of the compound able to dissolve in 1 mL of the diluent used. The dose of extract i.v. was 100 mg/kg, a reference dose for animal experimentation in our group, which also allowed the solubilization of rutin in the extract within the administration volume. Oral rutin was administrated at a dose of 100 mg/kg, and oral extract was administrated at a dose of 500 mg/kg, which is an active dose from prior experiments. Based on the rutin content in the extract, the doses of extract used were equivalent to 1.48 mg/kg and 7.4 mg/kg of rutin for the i.v. and p.o. experiments, respectively.
# (§3) For intravenous administration, solutions of rutin in sodium chloride solution (0.9% NaCl) were prepared at a concentration of 0.74 mg/mL, using DMSO (<0.1% of the final volume) to dissolve the compound. Meanwhile, the extract was directly dissolved in 0.9% NaCl at a concentration of 200 mg/mL. For oral administration, pure rutin and the extract were suspended in water near the time of the experiment to achieve concentrations in suspension of 200 and 1000 mg/mL, respectively. Vortexing and sonication were applied 3–4 times for 15 min each to all preparations. Each animal received 0.5 mL/kg of the treatment via the marginal ear vein (i.v.) or by oral gavage (p.o.).
# (§4) Samples of blood (approximately 250 µL) were withdrawn from the marginal ear vein and collected in heparinized tubes at various time points. For experiments with i.v. administration, sampling was conducted at times 0, 0.083, 0.166, 0.333, 0.5, 0.75, 1, 1.5, 2, 3, 4, 6, 8, 12, and 24 h. For experiments with p.o. administration, sampling was performed at times 0, 0.083, 0.25, […], 0.75, 1, 2, 3, 4, 6, 8, 12, 24, and 48 h (Figure 1). The blood samples were then centrifuged at 3200× g and at 4 °C for 15 min to separate plasma, which was transferred to a new tube. The plasma was promptly acidified to pH 4 using 0.5 µL of 42.5% formic acid and then frozen at −80 °C until further analysis.
# (§5) The quantification of analytes was carried out using a validated UHPLC-UV method on a Chromaster RS chromatograph (Hitachi, Tokyo, Japan). Briefly, plasma samples (100 µL) were supplemented with the internal standard, chrysin (1000 ng/mL), and divided into two tubes. One tube was immediately extracted and injected into the chromatographic system to quantify rutin. The plasma in the other tube first underwent a deconjugation reaction with 120 Fishman units of a mixture of the enzymes β-glucuronidase/arylsulfatase at pH 5.5 and 37 °C for 30 min. The product of the reaction, Quer, was also quantified, representing rutin metabolites Q3OG and Q3OS. The analytes in the plasma samples, rutin and Quer, were extracted using the protein precipitation method with twice the volume of methanol; proteins were then separated by centrifugation at 1200× g and 4 °C for 15 min, and the supernatant was used for instrumental analysis.
# (§6) Concentrations–time data were tabulated and processed using MonolixSuite™ 2024R1 (Lixoft®, Paris, France). […]
# [4] = parameters: method as in PMID 32162346; details: low solubility and low permeability; cited from earlier work
# [5] = Population PK model of rutin after i.v. administration (two-compartment, first-order elimination); format: in vivo, New Zealand White rabbits
# Method: PopPK analysis was performed using the Monolix® module of the MonolixSuite™. Two models were established, one for rutin after i.v. administration of the treatments, and one for Quer, produced by deconjugation of Q3OG and Q3OS, after p.o. administration of the treatments. Structural models with one or two compartments and first-order elimination were assessed, incorporating a double first-order absorption for p.o. experiments. An analysis of covariate was conducted, using the source of rutin as categorical covariate (pure compound or extract), which was incorporated into the model if statistically significant (p < 0.05 for Pearson’s and Wald tests with stochastic approximation). Correlations between random effects of the parameters were also examined and included in the model when significant (p < 0.05 for t-test). The final model, along with the residual error model, was chosen based on criteria including individual fit plots, Akaike’s information criteria (AIC) values, observation-versus-prediction plot analysis, precision of estimated parameters, and evaluation of residual distribution. The variability on fixed-effect model parameters was described by Equation (4):(4) Pi=Ppop+β+η(i,p), where Pi is the value of the individual PK parameter, Ppop is the value of the population PK parameter, β represents the variability due to the covariate extract if significant, and η is the individual deviation with respect to the population. Models were parametrized in micro-constants, i.e., elimination rate constant (k), distribution rate constant from compartment 1 to compartment 2 (k12), and distribution rate constant from compartment 2 to compartment 1 (k21). When necessary, Cl was calculated as follows: (5) Cl=k×V, where V is the volume of distribution of first compartment. The model was internally validated through the visual predictive check (VPC) with 1000 simulated data points. Validation of structural, variability, and covariate models was considered achieved if the observed percentiles remained within the corresponding prediction intervals estimated across all simulated data and computed with a level of 90%. In addition, the parameter uncertainty was assayed by bootstrap analysis using 1000 runs. The model was considered stable, robust, and accurate if the mean parameters of the model were close to those estimated via bootstrap and fell within the 95% confidence interval (CI 95%).
# [6] = Noncompartmental PK of rutin after oral administration of pure rutin or P. peruviana extract; format: in vivo, New Zealand White rabbits
# Method: as §1, §2, §3, §4, §5, §6
# [7] = male, New Zealand White, rabbit, plasma, iv, rutin, pure rutin 0.37 mg/kg, extract equivalent to 1.48 mg/kg of rutin, NCA, mean ± SD, n = 5
# [8] = rutin, i.v., pure rutin 0.37 mg/kg, extract equivalent to 1.48 mg/kg of rutin, NCA, mean ± SD, n = 5
# [9] = male, New Zealand White, rabbit, plasma, po, rutin, pure rutin 100 mg/kg, extract equivalent to 7.4 mg/kg of rutin, NCA, mean ± SD, n = 5
# [10] = male, New Zealand White, rabbit, po, rutin in plasma, pure rutin 100 mg/kg, extract equivalent to 7.4 mg/kg of rutin, NCA, mean ± SD, n = 5
# [11] = rutin, p.o., pure rutin 100 mg/kg, extract equivalent to 7.4 mg/kg of rutin, NCA, mean ± SD, n = 5
smiles,measurement,setting,value
"C[C@@H]1O[C@@H](OC[C@H]2O[C@@H](Oc3c(-c4ccc(O)c(O)c4)oc4cc(O)cc(O)c4c3=O)[C@H](O)[C@@H](O)[C@@H]2O)[C@H](O)[C@H](O)[C@H]1O [Pure Rutin, quercetin-3-O-rutinoside]","Cl, rat parameter",[1],0.031 L/h
same,"V, rat parameter",[1],0.024 L
same,"V, human parameter (experimental b)","[2]; 70 kg, b exponent from the data",1.410 L
same,"Cl, human parameter (theoretical b)","[2]; 70 kg, theoretical b 0.75",2.323 L/h
same,"V, human parameter (theoretical b)","[2]; 70 kg, theoretical b 1.0",3.988 L
same,"Cl, a coefficient of allometric scaling","[2]; Y = a × W^b, rats and rabbits",0.096
same,"Cl, b exponent of allometric scaling","[2]; Y = a × W^b, rats and rabbits",0.9
same,"V, a coefficient of allometric scaling","[2]; Y = a × W^b, rats and rabbits",0.057
same,"V, b exponent of allometric scaling","[2]; Y = a × W^b, rats and rabbits",0.8
same,clearance,"[2]; human, 70 kg, b exponent from the data, read-out: Cl, human parameter (experimental b) (converted)",89.8 mL/min
same,time post-dosage up to which rutin was quantified,[3]; i.v.,up to 6 h
same,"rutin plasma level, upper end of quantified range","[3]; i.v., mean ± SEM",4960 ± 340 ng/mL
same,AUC(0-inf),"[3]; male, New Zealand White, rabbit, iv, rutin in plasma, pure rutin 0.37 mg/kg, extract equivalent to 1.48 mg/kg of rutin, NCA, mean ± SD, n = 5",4740 ± 814 ng·h/mL
same,Vd,"[3]; male, New Zealand White, rabbit, plasma, iv, 0.37 mg/kg, rutin, i.v., pure rutin 0.37 mg/kg, extract equivalent to 1.48 mg/kg of rutin, NCA, mean ± SD, n = 5, read-out: Vss",0.29 ± 0.053 L/kg
same,Vd,"[3]; male, New Zealand White, rabbit, plasma, iv, 0.37 mg/kg, rutin, i.v., pure rutin 0.37 mg/kg, extract equivalent to 1.48 mg/kg of rutin, NCA, mean ± SD, n = 5, read-out: Vz",0.084 ± 0.028 L/kg
same,concentration at 6 h,"[3]; male, New Zealand White, rabbit, plasma, iv, 0.37 mg/kg, i.v., mean ± SEM, at last quantified time, read-out: rutin plasma level, lower end of quantified range",105 ± 24 ng/mL
same,half-life,"[3]; male, New Zealand White, rabbit, plasma, iv, rutin, i.v., pure rutin 0.37 mg/kg, extract equivalent to 1.48 mg/kg of rutin, NCA, mean ± SD, n = 5, read-out: t1/2 (terminal half-life) (converted)",0.79 ± 0.381 h
same,k el,"[3]; male, New Zealand White, rabbit, plasma, iv, rutin, i.v., pure rutin 0.37 mg/kg, extract equivalent to 1.48 mg/kg of rutin, NCA, mean ± SD, n = 5, read-out: λz (converted)",0.000294 s⁻¹
same,MRT,[3]; [7],3.63 ± 0.163 h
same,clearance,[3]; [7],1.32 mL/min/kg
same,Cp^0 (plasma concentration at zero time),"[3]; rutin in plasma, i.v., pure rutin 0.37 mg/kg, extract equivalent to 1.48 mg/kg of rutin, NCA, mean ± SD, n = 5",4960.02 ± 760.234 ng/mL
same,AUC0–∞/dose,[3]; [8],12.90 ± 2.214 h/L/kg
same,Cp^0/dose,[3]; [8],13.49 ± 2.068 L⁻¹ kg⁻¹
same,Biopharmaceutical Classification System class,[4],Class IV
same,clearance,"[5]; New Zealand White, rabbit, plasma, intravenous, 0.37 mg/kg, popPK individual parameters, Cl = k × V, per animal, read-out: Cl, rabbit parameter (converted)",3.13 mL/min
same,"k12 (distribution rate constant compartment 1 to 2), population value","[5]; i.v., popPK",3.666 h⁻¹
same,"k21 (distribution rate constant compartment 2 to 1), population value","[5]; i.v., popPK, no extract covariate",3.777 h⁻¹
same,Vd,"[5]; male, New Zealand White, rabbit, plasma, iv, popPK, read-out: V (volume of distribution of first compartment), population value",0.048 L/kg
same,k el,"[5]; male, New Zealand White, rabbit, plasma, iv, popPK, read-out: k (first-order elimination rate constant), population value (converted)",0.000534 s⁻¹
same,"V, rabbit parameter","[5]; popPK individual parameters, per animal",0.096 L
same,bioavailability,"[6]; male, New Zealand White, rabbit, plasma, po, p.o. vs i.v., pure rutin 100 mg/kg, extract equivalent to 7.4 mg/kg of rutin, read-out: F (absolute bioavailability of rutin)",0.6%
same,Vd/F,"[6]; male, New Zealand White, rabbit, plasma, po, rutin, p.o., pure rutin 100 mg/kg, extract equivalent to 7.4 mg/kg of rutin, NCA, mean ± SD, n = 5, read-out: Vz/F",59.1 ± 11.4 L/kg
same,k el,"[6]; male, New Zealand White, rabbit, plasma, po, rutin, p.o., pure rutin 100 mg/kg, extract equivalent to 7.4 mg/kg of rutin, NCA, mean ± SD, n = 5, read-out: λz (converted)",6.5e-05 s⁻¹
same,CL/F,[6]; [9],226 mL/min/kg
same,MRT,[6]; [9],11.8 ± 0.916 h
same,AUC(0-inf),[6]; [10],7790 ± 2110 ng·h/mL
same,Cmax,[6]; [10],1170 ± 371 ng/mL
same,Tmax,[6]; [10],0.75 h
same,time of second peak of rutin plasma concentration (double peaks),"[6]; p.o., Cmax here for the extract",4.0 h
same,time of first peak of rutin plasma concentration (double peaks),"[6]; p.o., Cmax here for the pure compound",0.75 h
same,AUC0–∞/dose,[6]; [11],0.078 ± 0.021 h/L/kg
same,Cmax/dose,[6]; [11],0.012 ± 0.004 L⁻¹ kg⁻¹
